Measurements reported in patent US20170280720A1, “ARGININE […] INHIBITORS AND USES THEREOF” (EPIZYME, INC., priority 2014, published 2017).
pIC50: −log10 of the molar value. Counter-ions that a name gives are not always drawn.

Target: T1, Human CARM1 (PRMT4) (Homo sapiens, UniProt Q86X55)
T1 construct: Flag-CARM1-His; made in house; host or cells: HEK 293F cells (BacMam baculovirus, pFastBacMam)
T1 sequence (Q86X55 2-585 isoform Q86X55-1): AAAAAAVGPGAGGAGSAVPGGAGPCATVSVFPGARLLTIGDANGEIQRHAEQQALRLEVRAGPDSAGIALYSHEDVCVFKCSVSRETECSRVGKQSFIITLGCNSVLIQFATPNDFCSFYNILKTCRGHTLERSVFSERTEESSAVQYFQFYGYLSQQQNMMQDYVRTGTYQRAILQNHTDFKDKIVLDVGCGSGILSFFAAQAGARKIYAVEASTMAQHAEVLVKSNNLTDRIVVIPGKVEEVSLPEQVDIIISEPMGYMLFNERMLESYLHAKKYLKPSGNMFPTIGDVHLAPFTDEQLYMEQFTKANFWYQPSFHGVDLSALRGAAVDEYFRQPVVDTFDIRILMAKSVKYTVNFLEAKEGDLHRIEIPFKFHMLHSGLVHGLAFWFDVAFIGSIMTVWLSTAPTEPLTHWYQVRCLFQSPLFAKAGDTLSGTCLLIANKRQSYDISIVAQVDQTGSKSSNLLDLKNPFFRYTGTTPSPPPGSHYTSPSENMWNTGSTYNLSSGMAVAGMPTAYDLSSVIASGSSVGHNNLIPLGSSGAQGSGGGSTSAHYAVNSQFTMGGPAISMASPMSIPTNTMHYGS
Assay: CARM1 biochemical assay (3H-SAM Flashplate, peptide substrate)
Settings: read-out: CARM1_ IC50
How it was run: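 FLAG/His-tagged human CARM1 (isoform 1, Δ539-561, baculovirus-expressed), 0.25 nM, preincubated 30 min at room temperature with compound (2% DMSO) in 20 mM Bicine pH 7.6, then reacted with 30 nM 3H-SAM and 250 nM biotinylated H3 16-30 peptide (R26 monomethyl). Stopped with 300 uM cold SAM; labelled peptide captured on streptavidin Flashplate; % inhibition versus DMSO and 1 mM SAH controls fitted to a 4- or 3-parameter curve.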

| pIC50 | SMILES |
| --- | --- |
| 7.34 | CC(C)n1ncc2c(C(=O)N(C)[C@@H](C)c3ccccc3)cc(-c3cccc(CN(C)CCN)c3)cc21 [Compound 3] |
| 8.49 | CN(CCN)Cc1cccc(-c2nc(NCc3cn4ccsc4n3)c3cnn(C4CC4)c3n2)c1 [Compound 5] |
| 5.41 | COc1cccc(Cn2cnc3ccc(-c4ccc(CN(C)CCN)cc4)cc32)c1 [Compound 8] |
| 6.81 | CCC(O)c1cc(-c2cccc(CN(C)CCNC)c2)nc2c1cnn2C(C)C (stereo not shown) [Compound 48] |
| 7.56 | CNCCN(C)Cc1cccc(-c2cc(N3CCC(C(F)(F)F)CC3)c3cnn(C(C)C)c3n2)c1 [Compound 50] |
| 7.78 | CNCCN(C)Cc1cccc(-c2cc(N3CCC(OC)CC3)c3cnn(C(C)C)c3n2)c1 [Compound 51] |
| 7.73 | CNCCN(C)Cc1cccc(-c2nc(NCc3cnn(C)c3C)c3cnn(C4CC4)c3n2)c1 [Compound 57] |
| 7.65 | CNCCN(C)Cc1cccc(-c2cc(NC3COC3)c3cnn(C(C)C)c3n2)c1 [Compound 58] |
| 6.15 | CC(C)n1cc2c(Cl)cc(-c3cccc(CN(C)CCN)c3)nc2n1 [Compound 59] |
| 7.77 | CNCCN(C)Cc1cccc(-c2nc(NCc3cccnc3)c3cnn(C4CC4)c3n2)c1 [Compound 63] |
| 8.20 | CN(CCN)Cc1cccc(-c2nc(NCc3ccncc3)c3cnn(C4CC4)c3n2)c1 [Compound 66] |
| 7.55 | CNCCN(C)Cc1cccc(-c2cc(-c3ccoc3)c3cnn(C(C)C)c3n2)c1 [Compound 67] |
| 8.01 | CNCCN(C)Cc1cccc(-c2cc(N3CCOCC3)c3cnn(C(C)C)c3n2)c1 [Compound 68] |
| 7.71 | CNCCN(C)Cc1cccc(-c2nc(NCc3ccncc3)c3cnn(C4CC4)c3n2)c1 [Compound 69] |
| 4.93 | NCCNCc1ccc(-c2ccc3ncn(CC4CCNCC4)c3c2)cc1 [Compound 70] |
| 7.97 | COC(=O)Nc1cc(-c2cccc(CN(C)CCN)c2)nc2c1cnn2C(C)C [Compound 71] |
| 7.88 | CNCCN(C)Cc1cccc(-c2cc(NC3CCOCC3)c3cnn(C(C)C)c3n2)c1 [Compound 76] |
| 7.75 | CCOC(=O)c1cc(-c2cccc(CN(C)CCNC)c2)nc2c1cnn2C(C)C [Compound 78] |
| 7.86 | CC(C)n1ncc2c(NC(=O)OCc3ccccc3)cc(-c3cccc(CN(C)CCN)c3)nc21 [Compound 84] |
| 7.78 | CNCCN(C)Cc1cccc(-c2cc(C(=O)NCCCC(=O)NCc3ccn(C)n3)c3cnn(C(C)C)c3n2)c1 [Compound 88] |
| 7.44 | CNCCN(C)Cc1cccc(-c2cc(N(C)C3CC3)c3cnn(C(C)C)c3n2)c1 [Compound 95] |
| 8.07 | CN(CCN)Cc1cccc(-c2nc(NC3CC3)c3cnn(C4CC4)c3n2)c1 [Compound 96] |
| 8.29 | CC(C)n1ncc2c(NC3CCOCC3)cc(-c3cccc(CN(C)CCN)c3)nc21 [Compound 101] |
| 7.59 | CC(C)n1ncc2c(NS(=O)(=O)N(C)C)cc(-c3cccc(CN(C)CCN)c3)nc21 [Compound 107] |
| 7.98 | CC(C)n1ncc2c(C(=O)NCC3CCOCC3)cc(-c3cccc(CN(C)CCN)c3)nc21 [Compound 108] |

More lines, now with the values behind:

| SMILES | pIC50 |
| --- | --- |
| CNCCN(C)Cc1cccc(-c2cnc3c(c2)c(C2CC2)nn3CC2CCOCC2)c1 [Compound 4] | 5.85 |
| CNCCN(C)Cc1cccc(-c2nc(NCc3cn4ccsc4n3)c3cnn(C4CC4)c3n2)c1 [Compound 6] | 7.62 |
| Cc1c(C(=O)NCc2ccccc2)cc(-c2ccc(CN(C)CCN)cc2)c2cn[nH]c12 [Compound 7] | 5.17 |
| CNCCN(C)Cc1cccc(-c2nc(NCc3ccccn3)c3cnn(C4CC4)c3n2)c1 [Compound 9] | 8.12 |
| CNCCN(C)Cc1cccc(-c2cc(-c3cnn(C)c3)c3cnn(C(C)C)c3n2)c1 [Compound 49, N1-(3-(1-isopropyl-4-(1-methyl-1H-pyrazol-4-yl)-1H-pyrazolo[3,4-b]pyridin-6-yl)benzyl)-N1,N2-dimethylethane-1,2-diamine] | 7.91 |
| Cc1c(CNc2nc(-c3cccc(CN(C)CCN)c3)nc3c2cnn3C2CC2)cnn1C [Compound 52] | 8.39 |
| CCOc1cc(-c2cccc(CN(C)CCNC)c2)nc2c1cnn2C(C)C [Compound 53] | 7.70 |
| CC(C)n1ncc2c(C(=O)NCc3ccccc3Cl)cc(-c3cccc(CN(C)CCN)c3)nc21 [Compound 54] | 7.58 |
| CNCCN(C)Cc1cccc(-c2cc(N3CCCC(C#N)C3)c3cnn(C(C)C)c3n2)c1 (stereo not shown) [Compound 55] | 7.45 |
| CNCCN(C)Cc1cccc(-c2cc(C(=O)N3CCCCC3)c3cnn(C(C)C)c3n2)c1 [Compound 56] | 6.66 |
| CNCCN(C)Cc1cccc(-c2cc(C(=O)NCCCC(=O)NCC3CCOCC3)c3cnn(C(C)C)c3n2)c1 [Compound 60] | 7.76 |
| CC(C)n1ncc2c(N3CCOCC3)cc(-c3cccc(CN(C)CCN)c3)nc21 [Compound 61, N1-(3-(1-isopropyl-4-morpholino-1H-pyrazolo[3,4-b]pyridin-6-yl)benzyl)-N1-methylethane-1,2-diamine] | 8.28 |
| CNCCN(C)Cc1cccc(-c2cc(N3CCOCC3)n3ncc(C(C)C)c3n2)c1 [Compound 62, N1-(3-(3-isopropyl-7-morpholinopyrazolo[1,5-a]pyrimidin-5-yl)benzyl)-N1,N2-dimethylethane-1,2-diamine formate] | 7.68 |
| CNCCN(C)Cc1cccc(-c2cc(C(=O)NCCC(=O)NCC3CCOCC3)c3cnn(C(C)C)c3n2)c1 [Compound 64] | 7.60 |
| CC(C)n1ncc2c(C(=O)NCc3ccccc3F)cc(-c3cccc(CN(C)CCN)c3)nc21 [Compound 65] | 8.08 |
| CCNc1cc(-c2cccc(CN(C)CCNC)c2)nc2c1cnn2C(C)C [Compound 72] | 6.96 |
| CNCCN(C)Cc1cccc(-c2ccc3cnn(C(C)C)c3n2)c1 [Compound 73] | 6.42 |
| CNCCN(C)Cc1cccc(-c2cc(C#N)c3cnn(C(C)C)c3n2)c1 [Compound 74] | 7.42 |
| CNCCN(C)Cc1cccc(-c2ccc3nc[nH]c3c2)c1 [Compound 75] | 5.00 |
| CNCCN(C)Cc1cccc(-c2cc(N3CCC3)c3cnn(C(C)C)c3n2)c1 [Compound 79] | 7.84 |
| COc1ccccc1Cn1cnc2ccc(-c3ccc(CNCCN)cc3)cc21 [Compound 80] | 5.32 |

| SMILES | pIC50 |
| --- | --- |
| NCCNCc1ccc(-c2ccc3ncn(CC4CCCNC4)c3c2)cc1 (stereo not shown) [Compound 81] | 5.37 |
| Cc1ccccc1Cn1cnc2ccc(-c3ccc(CNCCN)cc3)cc21 [Compound 82] | 5.09 |
| CNCCN(C)Cc1cccc(-c2cc(C(=O)NCCC(=O)NCc3ccn(C)n3)c3cnn(C(C)C)c3n2)c1 [Compound 83] | 7.59 |
| CNCCN(C)Cc1cccc(-c2cc(NC(=O)NC(C)C)c3cnn(C(C)C)c3n2)c1 [Compound 85] | 7.85 |
| CC(C)NC(=O)Nc1cc(-c2cccc(CN(C)CCN)c2)nc2c1cnn2C(C)C [Compound 86] | 8.09 |
| CNCCN(C)Cc1cccc(-c2cc(C(=O)NC3CCOCC3)c3cnn(C4CC4)c3n2)c1 [Compound 87] | 7.43 |
| CNCCN(C)Cc1cccc(-c2ccc3ncn(C)c3c2)c1 [Compound 92] | 5.19 |
| CNCCN(C)Cc1cccc(-c2cc(N3CCC(C#N)CC3)c3cnn(C(C)C)c3n2)c1 [Compound 93] | 7.98 |
| COc1cccc(CCn2cnc3ccc(-c4ccc(CNCCN)cc4)cc32)c1 [Compound 94] | 5.37 |
| Cc1ccc(Cn2cnc3ccc(-c4ccc(CNCCN)cc4)cc32)cc1 [Compound 97] | 5.09 |
| CNCCN(C)Cc1cccc(-c2cc(C(=O)NCc3ccccn3)c3cnn(C(C)C)c3n2)c1 [Compound 98] | 7.49 |
| CNCCN(C)Cc1cccc(-c2nc(N3CCOCC3)c3cnn(C(C)C)c3n2)c1 [Compound 99] | 7.95 |
| CNCCN(C)Cc1cccc(-c2ccc3cnn(C(C)C)c3c2)c1 [Compound 100] | 5.43 |
| CNCCN(C)Cc1cccc(-c2cc(OC3CCOC3)c3cnn(C(C)C)c3n2)c1 (stereo not shown) [Compound 102] | 7.65 |
| CNCCN(C)Cc1cccc(-c2cc(N(C)C)c3cnn(C(C)C)c3n2)c1 [Compound 103] | 7.24 |
| NCCNCc1ccc(-c2ccc3ncn(Cc4ccc(C(=O)N5CCCC5)cc4)c3c2)cc1 [Compound 104] | 5.39 |
| CNCCN(C)Cc1cccc(-c2cc(C(=O)NCC3CCOCC3)c3cnn(C(C)C)c3n2)c1 [Compound 105] | 7.74 |
| Cc1cccc(-n2cnc3ccc(-c4ccc(CNCCN)cc4)cc32)c1 [Compound 106] | 4.83 |
| CNCCN(C)Cc1cccc(-c2nc(N(C)C3CCOCC3)c3cnn(C4CC4)c3n2)c1 [Compound 109, N1-(3-(1-cyclopropyl-4-(methyl(tetrahydro-2H-pyran-4-yl)amino)-1H-pyrazolo[3,4-d]pyrimidin-6-yl)benzyl)-N1,N2-dimethylethane-1,2-diamine] | 8.30 |
| COc1cccc(-n2cnc3ccc(-c4ccc(CNCCN)cc4)cc32)c1 [Compound 110] | 4.97 |
| CCS(=O)(=O)Nc1cc(-c2cccc(CN(C)CCN)c2)nc2c1cnn2C(C)C [Compound 111] | 6.88 |
